The source of these data is patent publication US8859541B2, “6-alkynylpyridines” (Boehringer Ingelheim International GmbH, priority 2012, dated 2014).

The test deals with T1, XIAP BIR3 (Homo sapiens, UniProt P98170).
T1 construct: covering amino acids 241 to 356; XIAP BIR3; made in house; host or cells: E. coli
T1 sequence (P98170 241-356): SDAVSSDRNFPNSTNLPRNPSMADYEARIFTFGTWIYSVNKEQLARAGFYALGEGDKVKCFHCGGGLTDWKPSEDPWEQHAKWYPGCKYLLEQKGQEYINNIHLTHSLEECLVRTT
In words: XIAP BIR3 binding assay (DELFIA), displacement of SMAC peptide. To be noted: GST-fusion BIR3 domain (aa 241 to 356) 10 nM, SMAC peptide 10 nM; activity of the (S)-isomers. Here is the method:
Biological Methods XIAP BIR3 and cIAP1 BIR3 Binding Assays (DELFIA)
Peptide […]-Lys(Biotin), representing the N-terminus of mature human SMAC (SMAC peptide), was used as interaction partner in the protein-peptide interaction assay.
BIR3 domains (10 nM) were incubated with SMAC peptide (10 nM) in Assay Buffer (50 mM Tris, 120 mM NaCl, 0.1% BSA, 1 mM DTT, 0.05% TritonX100) for one hour at room temperature in the presence of inhibitiory compounds. The assay mixture was transferred to a strepatvidin coated plate and incubated for one hour at room temperature to allow binding of the biotinylated peptide and associated BIR3 domains to the plate. After several washing steps Eu labeled anti-GST antibody (e.g. Perkin Elmer DELFIA Eu-N1-antiGST AD0250) was added to detect BIR3 domain-SMAC peptide interactions according to Perkin Elmer's instructions. […] Time resolved Europium fluoresecence was measured in a Wallac Victor using Standard assay settings.
DELFIA assay results were plotted against compound concentrations and Software GraphPad Prizm was used to calculate half maximal inhibitory concentrations (IC50 values).
Take `CNC(C)C(=O)Nc1ccc(-c2c(C)cncc2C)c(C#Cc2ccc3ncccc3c2)n1` (stereo not shown) [Example 1, N-[5-(3,5-dimethylpyridin-4-yl)-6-(2-quinolin-6-ylethynyl)pyridin-2-yl]-2-(methylamino)propanamide]: the 50% inhibitory concentration (IC50) was 0.287 µM. The value for `CNC(C)C(=O)Nc1ccc(-c2cncnc2)c(C#Cc2ccc3c(c2)OCCCO3)n1` (stereo not shown) [Example 2, N-(6-[2-(3,4-dihydro-2H-1,5-benzodioxepin-7-yl)ethynyl]-5-pyrimidin-5-ylpyridin-2-yl]-2-(methylamino)propanamide] was 0.259 µM; that for `CNC(C)C(=O)Nc1ccc(-c2cncc3ccccc23)c(C#Cc2ccc(OC)cc2)n1` (stereo not shown) [Example 3, N-[5-isoquinolin-4-yl-6-[2-(4-methoxyphenyl)ethynyl]-pyridin-2-yl]-2-(methyl-amino)propanamide] was 1.15 µM; that for `CNC(C)C(=O)Nc1ccc(-c2cncc3ccccc23)c(C#Cc2ccc(F)cc2)n1` (stereo not shown) [Example 4, N-[6-[2-(4-fluorophenyl)-ethynyl]-5-isoquinolin-4-ylpyridin-2-yl]-2-(methyl-amino)propanamide] was 0.643 µM. With `CNC(C)C(=O)Nc1ccc(-c2cncc3ccccc23)c(C#Cc2ccc3c(c2)OCC(=O)N3)n1` (stereo not shown) [Example 5, N-[5-isoquinolin-4-yl-6-[2-(3-oxo-4H-1,4-benzoxazin-7-yl)-ethynyl]pyridin-2-yl]-2-(methylamino)propanamide], the IC50 was 0.509 µM. The molecule `CNC(C)C(=O)Nc1ccc(-c2cncnc2C)c(C#Cc2ccc(C)c(C)c2)n1` (stereo not shown) [Example 6, N-[6-[2-(3,4-dimethylphenyl)-ethynyl]-5-(4-methylpyrimidin-5-yl)pyridin-2-yl]-2-(methylamino)propan-amide] displayed a half-inhibitory concentration (IC50) of 0.214 µM. In turn, `CNC(C)C(=O)Nc1ccc(-c2cncnc2)c(C#Cc2ccc3[nH]c(C)nc3c2)n1` (stereo not shown) [Example 7, 2-(methylamino)-N-[6-[2-(2-methyl-1H-benzimidazol-5-yl)ethynyl]-5-pyrimidin-5-ylpyridin-2-yl]propanamide] displayed an IC50 of 0.46 µM.

As to `CNC(C)C(=O)Nc1ccc(-c2cncnc2)c(C#Cc2ccc(-c3ccccn3)s2)n1` (stereo not shown) [Example 8, 2-(methylamino)-N-[6-[2-(5-pyridin-2-ylthiophen-2-yl)-ethynyl]-5-pyrimidin-5-ylpyridin-2-yl]propanamide], the concentration for half-maximal inhibition (IC50) worked out at 0.351 µM. The same measure for `CNC(C)C(=O)Nc1ccc(-c2cncnc2)c(C#Cc2ccc3ccccc3n2)n1` (stereo not shown) [Example 9, 2-(methylamino)-N-[5-pyrimidin-5-yl-6-(2-quinolin-2-ylethynyl)pyridin-2-yl]-propanamide]: 1.01 µM. The same measure for `CNC(C)C(=O)Nc1ccc(-c2cncnc2)c(C#Cc2ccc3[nH]cnc3c2)n1` (stereo not shown) [Example 10, N-[6-[2-(1H-benzimidazol-5-yl)ethynyl]-5-pyrimidin-5-ylpyridin-2-yl]-2-(methyl-amino)propanamide]: 0.787 µM. The value for `CNC(C)C(=O)Nc1ccc(-c2cncnc2)c(C#Cc2ccc3c(c2)C(=O)CCO3)n1` (stereo not shown) [Example 11, 2-(methylamino)-N-[6-[2-(4-oxo-2,3-dihydrochromen-6-yl)ethynyl]-5-pyrimidin-5-ylpyridin-2-yl]propanamide] was 1.21 µM; that for `CNC(C)C(=O)Nc1ccc(-c2cncnc2)c(C#Cc2ccc(OC)c(C#N)c2)n1` (stereo not shown) [Example 12, N-[6-[2-(3-cyano-4-methoxyphenyl)ethynyl]-5-pyrimidin-5-ylpyridin-2-yl]-2-(methylamino)propanamide] was 1.43 µM; that for `CNC(C)C(=O)Nc1ccc(-c2cncnc2)c(C#Cc2ccc3c(c2)OCCO3)n1` (stereo not shown) [Example 14, N-[6-[2-(2,3-dihydro-1,4-benzodioxin-6-yl)ethynyl]-5-pyrimidin-5-ylpyridin-2-yl]-2-(methylamino)propanamide] was 0.417 µM. In the case of `CNC(C)C(=O)Nc1ccc(-c2cncnc2)c(C#Cc2ccc3scnc3c2)n1` (stereo not shown) [Example 15, N-[6-[2-(1,3-benzothiazol-5-yl)ethynyl]-5-pyrimidin-5-ylpyridin-2-yl]-2-(methyl-amino)propanamide], the half-maximal inhibitory concentration (IC50) amounted to 0.711 µM. The value for `CNC(C)C(=O)Nc1ccc(-c2cncc3ccccc23)c(C#Cc2ccc3occc3c2)n1` (stereo not shown) [Example 16, N-[6-[2-(1-benzofuran-5-yl)-ethynyl]-5-isoquinolin-4-ylpyridin-2-yl]-2-(methyl-amino)propanamide] was 0.554 µM; that for `CNC(C)C(=O)Nc1ccc(-c2cncnc2)c(C#Cc2cc(F)cc(Cl)c2)n1` (stereo not shown) [Example 17, N-[6-[2-(3-chloro-5-fluorophenyl)ethynyl]-5-pyrimidin-5-ylpyridin-2-yl]-2-(methylamino)propanamide] was 0.122 µM; that for `CNC(C)C(=O)Nc1ccc(-c2cncnc2)c(C#Cc2ccc3ccncc3c2)n1` (stereo not shown) [Example 18, N-[6-(2-isoquinolin-7-yl-ethynyl)-5-pyrimidin-5-ylpyridin-2-yl]-2-(methyl-amino)propanamide] was 0.745 µM. The value for `CNC(C)C(=O)Nc1ccc(-c2cncnc2)c(C#Cc2ccc3ncccc3c2)n1` (stereo not shown) [Example 19, 2-(methylamino)-N-[5-pyrimidin-5-yl-6-(2-quinolin-6-ylethynyl)pyridin-2-yl]-propanamide] was 0.867 µM; that for `CNC(C)C(=O)Nc1ccc(-c2cncnc2)c(C#Cc2ccc3oc4ccccc4c3c2)n1` (stereo not shown) [Example 20, N-[6-(2-dibenzofuran-2-yl-ethynyl)-5-pyrimidin-5-ylpyridin-2-yl]-2-(methyl-amino)propanamide] was 4.28 µM.

For the molecule `CNC(C)C(=O)Nc1ccc(-c2c(C)ccc3c2cnn3C)c(C#Cc2ccc3ncccc3c2)n1` (stereo not shown) [Example 21, N-[5-(1,5-dimethylindazol-4-yl)-6-(2-quinolin-6-ylethynyl)-pyridin-2-yl]-2-(methyl-amino)propanamide], the IC50 was found to be 0.54 µM. As for `CNC(C)C(=O)Nc1ccc(-c2cccc3ccncc23)c(C#Cc2ccc3ncccc3c2)n1` (stereo not shown) [Example 22, N-[5-isoquinolin-8-yl-6-(2-quinolin-6-ylethynyl)pyridin-2-yl]-2-(methylamino)propan-amide], the IC50 was 1.3 µM.

`CNC(C)C(=O)Nc1ccc(-c2cncnc2)c(C#Cc2ccc3ccccc3c2)n1` (stereo not shown) [Example 23, 2-(methylamino)-N-[6-(2-naphthalen-2-ylethynyl)-5-pyrimidin-5-ylpyridin-2-yl]-propanamide] had an IC50 of 0.265 µM.

In the case of `CNC(C)C(=O)Nc1ccc(-c2c(C)ccc3ncccc23)c(C#Cc2ccc3ncccc3c2)n1` (stereo not shown) [Example 24, 2-(methylamino)-N-[5-(6-methylquinolin-5-yl)-6-(2-quinolin-6-ylethynyl)pyridin-2-yl]propanamide], the IC50 turned out to be 0.698 µM.

Regarding `CNC(C)C(=O)Nc1ccc(-c2cncnc2C)c(C#Cc2ccc3cncnc3c2)n1` (stereo not shown) [Example 25, 2-(methylamino)-N-[5-(4-methylpyrimidin-5-yl)-6-(2-quinazolin-7-ylethynyl)-pyridin-2-yl]propanamide], the IC50 turned out to be 0.653 µM. The same measure for `CNC(C)C(=O)Nc1ccc(-c2c(C)nc3ccccn23)c(C#Cc2ccc3c(=O)n(C)ccc3c2)n1` (stereo not shown) [Example 32, 2-(methylamino)-N-[5-(2-methylimidazo[1,2-a]pyridin-3-yl)-6-[2-(2-methyl-1-oxoisoquinolin-6-yl)ethynyl]-pyridin-2-yl]propanamide]: 0.228 µM; for `CNC(C)C(=O)Nc1ccc(-c2c(C)nc3ccccn23)c(C#Cc2ccc(C#N)c(C)c2)n1` (stereo not shown) [Example 38, N-[6-[2-(4-cyano-3-methyl-phenyl)ethynyl]-5-(2-methyl-imidazo[1,2-a]pyridin-3-yl)-pyridin-2-yl]-2-(methylamino)-propanamide]: 0.142 µM.

For the molecule `CNC(C)C(=O)Nc1ccc(-c2cnc3ccc(C#N)cn23)c(C#Cc2ccc3cnccc3c2)n1` (stereo not shown) [Example 40, N-[5-(6-cyanoimidazo[1,2-a]-pyridin-3-yl)-6-(2-isoquinolin-6-ylethynyl)pyridin-2-yl]-2-(methylamino)propanamide], the IC50 was 0.445 µM. The value for `CNC(C)C(=O)Nc1ccc(-c2c(C)nc3ccccn23)c(C#Cc2ccc3c(Cl)nccc3c2)n1` (stereo not shown) [Example 43, N-[6-[2-(1-chloroisoquinolin-6-yl)ethynyl]-5-(2-methyl-imidazo[1,2-a]pyridin-3-yl)-pyridin-2-yl]-2-(methylamino)-propanamide] was 0.31 µM. Regarding `CNC(C)C(=O)Nc1ccc(-c2c(C)nc3ccccn23)c(C#Cc2ccc3cc(F)ccc3c2)n1` (stereo not shown) [Example 51, N-[6-[2-(6-fluoronaphthalen-2-yl)ethynyl]-5-(2-methyl-imidazo[1,2-a]pyridin-3-yl)-pyridin-2-yl]-2-(methylamino)-propanamide], the 50% inhibitory concentration (IC50) came out at 0.453 µM. The value for `CNC(C)C(=O)Nc1ccc(-c2c(C)nc3ccccn23)c(C#Cc2ccc(-c3ccncn3)cc2)n1` (stereo not shown) [Example 55, 2-(methylamino)-N-[5-(2-methylimidazo[1,2-a]pyridin-3-yl)-6-[2-(4-pyrimidin-4-ylphenyl)ethynyl]pyridin-2-yl]-propanamide] was 0.31 µM; that for `CNC(C)C(=O)Nc1ccc(-c2c(Cl)cncc2Cl)c(C#Cc2ccc3ncccc3c2)n1` (stereo not shown) [Example 56, N-[5-(3,5-dichloropyridin-4-yl)-6-(2-quinolin-6-ylethynyl)-pyridin-2-yl]-2-(methylamino)-propanamide] was 2.88 µM.
